{
  "source": "patent US20240189257A1",
  "about": "“COMPOSITIONS AND METHODS FOR MANAGING NEPHROPATHY” (SAMI-SABINSA GROUP LIMITED, priority 2021, published 2024)",
  "tested_on": "High fat diet + STZ + DOCA (diabetic nephropathy)",
  "experiment": "Renal lipids (triglyceride, total cholesterol, free fatty acid, phospholipids) by automated analyzer in high fat diet + STZ + DOCA model",
  "assay_type": "in vivo, rats",
  "experimental": "After 1 week of adaptive feeding, the rats were randomly divided into normal control and experimental groups. The experimental group received high-fat diet (consisting of 70% standard laboratory chow, 15% carbohydrates, 10% lard, and 5% yolk powder) to establish an insulin resistance model, while the normal control group receive standard chow. After 4 weeks of high-fat diet feeding, the experimental group rats were induced with diabetes by a single intraperitoneal injection of STZ (35 mg/kg, dissolved in 0.01 M sodium citrate buffer, pH 4.4), while the Normal group rats were injected with the same dose of citrate buffer. At the 7th day after STZ injection, the blood glucose levels of rats were measured to confirm the successful establishment of the model. Rats with blood glucose level ≥250 mg/dl is indicative of the establishment of the disease and selected for further pharmacological studies. All rats were fed their respective diets until the end of the study. Rats were also given 1% NaCl (salt) to drink and on day 28, 0.75 μg […] (DOCA) was subcutaneously infused. Blood pressure and urinary albumin were measured to establish renal hypertension.\nAll the experimental rats were assigned to the specific treatment group and test drugs were administered orally once daily between 9:00 and 11:00 a.m., continuously for 12 weeks.\nAt the end of the treatment, all rats were be housed in individual metabolic cages for 24 h to collect urine samples and then sacrifice. Urine samples were centrifuged at 4000×g for 5 min to separate the supernatant. Blood samples are acquired by a small puncture to retro orbital plexus and centrifuged at 4000×g for 10 min at 4° C. to separate the plasma for subsequent experiments. Serum was also separated from the blood for analysis in which anti-coagulant was not added. Thereafter, the kidneys were immediately harvested and weighed. The right kidneys were washed in ice-cold saline solution and fixed in 4% neutral formaldehyde solution for histological examination, whereas the renal cortex of the left kidneys was rinsed with cold isotonic saline and subsequently stored at −70° C. until biochemical estimations.\nMeasurement of renal lipids viz. Triglyceride, Total cholesterol, Free Fatty Acid, Phospholipids was also done by automated analyzer.",
  "key": {"[1]": {"conditions": "decrease against High fat diet + STZ + DOCA group"}, "[2]": {"conditions": "renal lipids, high fat diet + STZ + DOCA rats, p.o. 12 weeks"}},
  "data": [
    {"smiles": "CN(C)C(=N)N=C(N)N", "note": "[Metformin]", "values": [
      {"measurement": "Free fatty acids, % decrease (↓)", "setting": "[1]", "result": 47.5, "unit": "%↓"},
      {"measurement": "Phospholipids, % decrease (↓)", "setting": "[1]", "result": 55.2, "unit": "%↓"},
      {"measurement": "Total Cholesterol, % decrease (↓)", "setting": "[1]", "result": 30, "unit": "%↓"},
      {"measurement": "Triglycerides, % decrease (↓)", "setting": "[1]", "result": 17.2, "unit": "%↓"},
      {"measurement": "Free fatty acids", "setting": "[2]", "result": "25.34 ± 1.88", "unit": "mg/mL"},
      {"measurement": "Phospholipids", "setting": "[2]", "result": "4.33 ± 0.023", "unit": "mg/mL"},
      {"measurement": "Total Cholesterol", "setting": "[2]", "result": "40.33 ± 3.50", "unit": "mg/dL"},
      {"measurement": "Triglycerides", "setting": "[2]", "result": "122.67 ± 3.56", "unit": "mg/mL"}
    ]}
  ]
}
